From patent US20170360882A1, “COMPOSITION FOR PREVENTING, IMPROVING OR TREATING PSORIASIS COMPRISING IMMUNOMODULATOR AND GLUCOSAMINE” (DONGGUK UNIVERSITY INDUSTRY-ACADEMY COOPERATION FOUNDATION, priority 2014, published 2017)

Assays:
Type in all cases: in vivo, C57BL/6 mice
[1] = system: IL-17A; test: Cytokine production assay (ELISA), IL-17A in blood serum and skin of IMQ-induced psoriasis-like mice; settings: blood serum samples and skin samples; glucosamine 300 mg/kg, cyclosporine A 10 and 20 mg/kg; co-administration vs each alone; alone vs control group (IMQ alone)
Experimental: (§1) To measure cytokine levels in blood serum, mouse blood serum was collected 24 hours after the final administration and stored at −70° C. until analysis. To measure cytokine levels in the skin tissues, the back skin of mice was removed and stored at −80° C. Thereafter, the skin tissues were homogenized using a Bullet Blender™ Blue (Next Advance, Averill Park, N.Y.) at 4° C. to obtain supernatants, and the supernatants were stored at −30° C. IL-17A, IL-22, IL-23, and TNF-α concentrations in the blood serum and the skin tissues of mice were measured using the Mouse IL-17A Quantikine ELISA Kit (R&D Systems, Minneapolis, Minn., USA), IL-22, IL-23 and TNF-α ELISA kits (eBioscience, San Diego, Calif., USA). Meanwhile, ELISA was performed according to the manufacturer's instructions.

[2] = system: CD4+ CD25+ Treg cells; test: Flow cytometry of regulatory T (Treg) cells from spleens of IMQ-induced psoriasis-like mice; settings: spleen cells; glucosamine 300 mg/kg, cyclosporine A 20 mg/kg; co-administration vs each alone; alone vs control group (IMQ alone)
Experimental: Single-cell suspensions prepared from spleens were stained with FITC-anti-CD4 (GK1.5) and PE-anti-CD25 (280406) (R&D Systems, Minneapolis, Minn., USA), and incubated in a PBS solution containing 2% FBS at 4° C. for 30 minutes under dark conditions. After incubation, the samples were washed twice and analyzed using CellQuest software (Becton Dickinson).

[3] = system: IMQ-induced psoriasis-like mouse model; test: Skin lesion score (erythema+scaling+thickening) in IMQ-induced psoriasis-like mouse model; settings: for severity of psoriasis-like skin lesions (cumulative score erythema+scaling+thickening): oral, 7 days
Experimental: More specifically, hair on the backs of C57BL/6 mice was shaved off using an electric razor and then treated with a depilatory (Niclean, Ildong, Korea). For all other groups except a normal group, 62.5 mg of IMQ cream was applied daily to the shaved back area for 14 days.
On the other hand, the normal group as a negative control group was treated only with a vehicle cream (petrolatum).
The degree of (1) erythema, (2) scaling and (3) thickening was scored as 0 (none), 1 (mild), 2 (moderate) and 3 (severe). A cumulative dermatitis score (erythema+scaling+thickening) indicates the severity of psoriasis in back skin (scale: 0-9).
The clinical skin scores were calculated by summing the scores obtained on the basis of symptoms of erythema, scaling and thickening.

[4] = system: IL-22; test: Cytokine production assay (ELISA), IL-22 in blood serum and skin of IMQ-induced psoriasis-like mice; settings: blood serum samples and skin samples; glucosamine 300 mg/kg, cyclosporine A 10 and 20 mg/kg; co-administration vs each alone; alone vs control group (IMQ alone)
Experimental: as §1

[5] = system: TNF-α; test: Cytokine production assay (ELISA), TNF-α in blood serum and skin of IMQ-induced psoriasis-like mice; settings: blood serum samples and skin samples; glucosamine 300 mg/kg, cyclosporine A 10 and 20 mg/kg; co-administration vs each alone; alone vs control group (IMQ alone)
Experimental: as §1

[6] = system: IL-23; test: Cytokine production assay (ELISA), IL-23 in blood serum and skin of IMQ-induced psoriasis-like mice; settings: blood serum samples and skin samples; glucosamine 300 mg/kg, cyclosporine A 10 and 20 mg/kg; co-administration vs each alone; alone vs control group (IMQ alone)
Experimental: as §1

SMILES: N[C@@H]1C(O)O[C@H](CO)[C@H](O)[C@@H]1O (stereo in doubt) [glucosamine]
- IL-17A level [1]: no significant difference
- number of CD4+ CD25+ Treg cells [2]: no significant difference
- clinical skin scores ([3]; glucosamine 300 mg/kg, cyclosporine A 10 and 20 mg/kg, oral once a day for a week, co-administration vs each alone, alone vs control group (IMQ alone)): no significant difference
- severity of psoriasis-like skin lesions (cumulative score erythema+scaling+thickening) ([3]; high doses alone: glucosamine 400 mg/kg, cyclosporine A 40 mg/kg): reduced
- severity of psoriasis-like skin lesions (cumulative score erythema+scaling+thickening) ([3]; low doses alone: glucosamine 100, 200 and 300 mg/kg, cyclosporine A 10 and 20 mg/kg): no significant effect
- IL-22 level [4]: no significant difference
- level of TNF-α [5]: no significant difference
- IL-23 level [6]: no significant difference
